Test results taken from patent US11083709B2, “Compounds, compositions, and methods of increasing CFTR activity” (Proteostasis Therapeutics, Inc., priority 2015, dated 2021).

How the values were obtained:
[1] = molecular target: T1, CFTR in G542X/F508del HBEs (Homo sapiens, UniProt P13569, DEL508-508); assay: Ussing measurements, G542X/F508del HBEs; format: cell-based; settings: genotype G542X/F508del
T1 construct: endogenous in cells; host or cells: primary lung epithelial cells (hBEs), genotype G542X/F508del
Protocol: As discussed above, Ussing measurements were used to measure CFTR activity. In this method, primary lung epithelial cells (hBEs) with a Cystic fibrosis causing class I mutation were differentiated for a minimum of 4 weeks in an air-liquid interface on SnapWell™ filter plates prior to the Ussing measurements. Cells were apically mucus-washed for 30 minutes prior to treatment with compounds. The basolateral media was removed and replaced with media containing the compound of interest diluted to its final concentration from DMSO or aqueous stocks. Treated cells were incubated at 37° C. and 5% CO2 for 24 hours. […] The short-circuit current was measured in voltage clamp-mode (Vhold=0 mV), and the entire assay was conducted at a temperature of 36° C.-36.5° C. Once the voltages stabilized, the chambers were clamped, and data were recorded by pulse readings every 5 seconds. Following baseline current stabilization, the following additions were applied and the changes in current and resistance of the cells were monitored: • 1. […]
The forskolin-sensitive current and inhibitable current (that potentiated current that was blocked by CFTRinh-172) were measured as the specific activity of the ΔF508-CFTR channel, and increase in response to compound in this activity over that observed in vehicle-treated samples were identified as the correction of ΔF508-CFTR function imparted by the compound tested. […]

[2] = test system: CFTR in R117H/F508del HBEs; assay: Ussing measurements, R117H/F508del HBEs; format: cell-based, human; settings: genotype R117H/F508del
Protocol: (§1) As discussed above, Ussing measurements was used to measure CFTR activity. In this method, primary lung epithelial cells (hBEs) with a Cystic Fibrosis-causing class III mutation were differentiated for a minimum of 4 weeks in an air-liquid interface on SnapWell™ filter plates prior to the Ussing measurements. Cells were apically mucus-washed for 30 minutes prior to treatment with compounds. The basolateral media was removed and replaced with media containing the compound of interest diluted to its final concentration from DMSO stocks. Treated cells were incubated at 37° C. and 5% CO2 for 24 hours. At the end of the treatment period, the cells on filters were transferred to the Ussing chamber and equilibrated for 30 minutes. The short-circuit current was measured in voltage clamp-mode (Vhold=0 mV), and the entire assay was conducted at a temperature of 36° C.-36.5° C. Once the voltages stabilized, the chambers were clamped, and data was recorded by pulse readings every 5 seconds. Following baseline current stabilization, the following additions were applied and the changes in current and resistance of the cells was monitored: • 1. Benzamil to the apical chamber to inhibit ENaC sodium channel. • 2. Forskolin to both chambers to activate ΔF508-CFTR by phosphorylation. • 3. Ivacaftor or Genistein to the apical chamber to potentiate ΔF508-CFTR channel opening. • 4. CFTRinh-172 to the apical chamber to inhibit ΔF508-CFTR Cl-conductance.
(§2) The forskolin-sensitive current and inhibitable current (that potentiated current that is blocked by CFTRinh-172) were measured as the specific activity of the ΔF508-CFTR channel, and increase in response to compound in this activity over that observed in vehicle-treated samples were identified as the correction of ΔF508-CFTR function imparted by the compound tested.
(§3) The results are shown below in Tables 5 and 6. Compound A is 10 uM and VX-809 is 3 uM and ivacaftor is 1 uM.

[3] = test system: CFTR, genotype 3849 + 10kb C > T/N1303K; assay: CFTR activity by mutation type, 3849 + 10kb C > T/N1303K (Table 7); format: cell-based, human
[4] = test system: CFTR in G551D/F508del HBEs; assay: Ussing measurements, G551D/F508del HBEs; format: cell-based, human; settings: genotype G551D/F508del
Protocol: as §1, §2, §3

[5] = test system: CFTR, genotype G542X/G542X; assay: CFTR activity by mutation type, G542X/G542X (Table 7); format: cell-based, human
[6] = compound A 10uM + ivacaftor 1uM, relative activity of 100% = ivacaftor
[7] = compound A 10uM, relative activity of 100% = ivacaftor (1uM)

T1 sequence (P13569 with tags, fused parts or gaps DEL508-508): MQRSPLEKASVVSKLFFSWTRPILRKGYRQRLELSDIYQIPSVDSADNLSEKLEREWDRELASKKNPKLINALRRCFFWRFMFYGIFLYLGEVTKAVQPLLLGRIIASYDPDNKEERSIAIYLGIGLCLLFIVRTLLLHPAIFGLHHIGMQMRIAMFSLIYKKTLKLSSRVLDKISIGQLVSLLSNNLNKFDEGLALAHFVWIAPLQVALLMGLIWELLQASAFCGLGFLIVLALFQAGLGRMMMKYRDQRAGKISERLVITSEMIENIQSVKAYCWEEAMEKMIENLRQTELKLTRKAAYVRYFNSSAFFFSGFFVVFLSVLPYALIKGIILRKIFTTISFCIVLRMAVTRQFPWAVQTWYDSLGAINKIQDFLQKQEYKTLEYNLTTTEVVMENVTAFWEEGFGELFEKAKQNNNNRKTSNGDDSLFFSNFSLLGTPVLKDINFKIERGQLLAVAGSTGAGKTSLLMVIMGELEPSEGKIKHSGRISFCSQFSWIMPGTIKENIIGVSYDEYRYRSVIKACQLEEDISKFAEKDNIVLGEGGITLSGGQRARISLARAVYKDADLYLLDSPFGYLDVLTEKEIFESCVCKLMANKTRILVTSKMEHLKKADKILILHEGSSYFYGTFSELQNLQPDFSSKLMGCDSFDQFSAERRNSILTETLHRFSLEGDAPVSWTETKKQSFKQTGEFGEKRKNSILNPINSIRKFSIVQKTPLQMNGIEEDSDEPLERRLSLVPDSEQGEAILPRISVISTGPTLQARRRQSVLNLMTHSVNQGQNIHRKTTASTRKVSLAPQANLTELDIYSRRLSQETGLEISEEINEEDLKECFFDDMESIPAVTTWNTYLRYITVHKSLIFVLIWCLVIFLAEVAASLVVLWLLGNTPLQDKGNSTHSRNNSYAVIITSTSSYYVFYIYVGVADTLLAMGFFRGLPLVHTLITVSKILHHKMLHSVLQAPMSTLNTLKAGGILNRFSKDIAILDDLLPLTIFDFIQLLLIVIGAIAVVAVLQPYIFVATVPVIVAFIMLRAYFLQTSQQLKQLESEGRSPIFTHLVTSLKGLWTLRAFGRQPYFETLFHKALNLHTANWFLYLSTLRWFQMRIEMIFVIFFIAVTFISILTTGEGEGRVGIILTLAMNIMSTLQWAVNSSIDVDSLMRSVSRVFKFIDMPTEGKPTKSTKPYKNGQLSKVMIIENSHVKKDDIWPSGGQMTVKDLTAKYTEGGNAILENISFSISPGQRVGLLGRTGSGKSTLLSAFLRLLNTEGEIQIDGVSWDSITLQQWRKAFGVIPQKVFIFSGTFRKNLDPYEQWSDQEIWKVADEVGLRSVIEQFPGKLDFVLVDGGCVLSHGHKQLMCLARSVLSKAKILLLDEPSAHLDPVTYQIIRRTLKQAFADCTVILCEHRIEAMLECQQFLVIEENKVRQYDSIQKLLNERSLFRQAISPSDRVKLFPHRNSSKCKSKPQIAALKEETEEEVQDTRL

C[C@@H](O)c1nnc([C@H]2C[C@H](NC(=O)c3cc(-c4ccccc4)no3)C2)o1 [Example 6, N-(trans-3-(5-((R)-1-hydroxyethyl)-1,3,4-oxadiazol-2-yl)cyclobutyl)-3-phenylisoxazole-5-carboxamide]
Combination with ivacaftor and lumacaftor, activity ([1]; compound A 10uM + ivacaftor 1uM + lumacaftor 3 uM, relative activity of 100% = ivacaftor and lumacaftor): ++++ (++++ indicates activity at 10uM of >150% of the indicated relative activity treatment)
Stand Alone activity ([1]; compound A 10uM, relative activity of 100% = ivacaftor (1uM) and lumacaftor (3 uM)): + (+ indicates activity at 10uM of 15% to <50% of the indicated relative activity treatment)
Combination with ivacaftor, activity [2, 6]: ++++ (++++ indicates activity at 10uM of >150% of the indicated relative activity treatment)
Stand Alone activity [2, 7]: +++ (+++ indicates activity at 10uM of 100% to <150% of the indicated relative activity treatment)
Combination with ivacaftor, activity [3, 6]: +++ (+++ indicates activity at 10uM of 100% to <150% of the indicated relative activity treatment)
Stand Alone activity [3, 7]: ++ (++ indicates activity at 10uM of 50% to <100% of the indicated relative activity treatment)
Combination with ivacaftor, activity [4, 6]: ++++ (++++ indicates activity at 10uM of >150% of the indicated relative activity treatment)
Stand Alone activity [4, 7]: + (+ indicates activity at 10uM of 15% to <50% of the indicated relative activity treatment)
Combination with NB124, activity ([5]; compound A 10uM + NB124 250 ug/ml, relative activity of 100% = NB124): ++++ (++++ indicates activity at 10uM of >150% of the indicated relative activity treatment)
Stand Alone activity ([5]; compound A 10uM, relative activity of 100% = NB124 (250 ug/ml)): ++ (++ indicates activity at 10uM of 50% to <100% of the indicated relative activity treatment)
